What all share (type): cell-based
One assay has as its system Haemophilus influenzae. Put plainly: MIC, fastidious Gram negative organisms in Mueller-Hinton broth. The conditions noted are these: Mueller-Hinton broth with hemin and NAD, aerobic, 24 hours, 37° C. On the procedure: (§1) The following results were obtained on a standard in-vitro test system The activity is described in terms of the minimum inhibitory concentration (MIC) determined by the agar-dilution technique with an inoculum size of 10^4 CFU/spot. Typically, compounds are active in the range 0.01 to 256 μg/ml.
(§2) Streptococci and enterococci were tested on agar supplemented with 5% defibrinated horse blood, an inoculum of 10^4 CFU/spot and an incubation temperature of 37° C. in an atmosphere of 5% carbon dioxide for 48 hours—blood is required for the growth of some of the test organisms. Fastidious Gram negative organisms were tested in Mueller-Hinton broth, supplemented with hemin and NAD, grown aerobically for 24 hours at 37° C., and with an innoculum of 5×10^4 CPU/well.

The next assay relates to Moraxella catarrhalis. The description is as above. The settings on record: Mueller-Hinton broth with hemin and NAD, aerobic, 24 hours, 37° C. On the procedure: as §1, §2
The subject of assay [1] is Staphylococcus aureus MSQS (methicillin sensitive and quinolone sensitive). Put plainly: MIC, agar dilution, staphylococci (MSQS strain). The conditions noted are these: 10^4 CFU/spot, 37° C., 24 hours. On the procedure:
as §1
(§3) Staphylococci were tested on agar, using an inoculum of 10^4 CFU/spot and an incubation temperature of 37° C. for 24 hours—standard test conditions for the expression of methicillin resistance.

Assay [2] has as its system Linezolid Resistant Streptococcus pneumoniae. The experiment in a line: MIC, agar with 5% defibrinated horse blood, linezolid resistant streptococci. The settings on record: agar + 5% horse blood, 10^4 CFU/spot, 37° C., 5% carbon dioxide, 48 hours. How it is done:
as §1, §2

In the next assay the test system is Enterococcus faecium. The experiment in a line: MIC, agar with 5% defibrinated horse blood, enterococci. The conditions noted are these: agar + 5% horse blood, 10^4 CFU/spot, 37° C., 5% carbon dioxide, 48 hours. How it is done:
as §1, §2

Assay [3] has as its system Staphylococcus aureus MRQR (methicillin resistant and quinolone resistant). The experiment in a line: MIC, agar dilution, staphylococci (MRQR strain). The conditions noted are these: 10^4 CFU/spot, 37° C., 24 hours. On the procedure: as §1, §3
The subject of the next assay is Streptococcus pneumoniae. The experiment in a line: MIC, agar with 5% defibrinated horse blood, streptococci. The conditions noted are these: agar + 5% horse blood, 10^4 CFU/spot, 37° C., 5% carbon dioxide, 48 hours. How it is done: as §1, §2

Molecules are shown by their SMILES. Values after ≈ are worked out from the molar mass of the structure shown.

With `O=C1O[C@@H](Cn2ccnn2)CN1c1ccc(-c2ccc(C3=NOC(CO)C3)c(F)c2)c(F)c1` (stereo partly drawn) [Example 4, (5R)-3-{2,3′-Difluoro-4′-[5-(hydroxymethyl)-4,5-dihydroisoxazol-3-yl]-1,1′-biphenyl-4-yl}-5-(1H-1,2,3-triazol-1-ylmethyl)-1,3-oxazolidin-2-one], the MIC against Haemophilus influenzae came to 4 µg/mL (≈ 8.78 µM); with Moraxella catarrhalis, 0.5 µg/mL (≈ 1.1 µM); in assay [1], 0.5 µg/mL (≈ 1.1 µM); in assay [2], 1 µg/mL; with Enterococcus faecium, 0.5 µg/mL; in assay [3] it was 0.5 µg/mL (≈ 1.1 µM). In addition, in the assay on Streptococcus pneumoniae, the MIC is 0.13 µg/mL.

These data come from patent publication US20060116401A1, “Antibacterial compounds” (AstraZeneca AB, priority 2002, published 2006).
